Data set [1] in a line: in vitro. Further details: PAMPA blood-brain barrier permeability, effective permeability Pe. To be noted: PAMPA-BBB Pe. An excerpt:
page 4 / Table S1. Inhibition activities of 5–7 and reference compounds (amiridine hydrochloride and THA). hAChE ± SEM^a hBChE ± SEM^a / Pe (10^-6 cm.s^-1)

In data set [2] the target is T1, hBChE (human serum / plasmatic butyrylcholinesterase) (Homo sapiens, UniProt P06276).
T1 construct: gene BCHE; native enzyme from human plasma/serum, purchased from Sigma-Aldrich
T1 sequence (P06276 29-602): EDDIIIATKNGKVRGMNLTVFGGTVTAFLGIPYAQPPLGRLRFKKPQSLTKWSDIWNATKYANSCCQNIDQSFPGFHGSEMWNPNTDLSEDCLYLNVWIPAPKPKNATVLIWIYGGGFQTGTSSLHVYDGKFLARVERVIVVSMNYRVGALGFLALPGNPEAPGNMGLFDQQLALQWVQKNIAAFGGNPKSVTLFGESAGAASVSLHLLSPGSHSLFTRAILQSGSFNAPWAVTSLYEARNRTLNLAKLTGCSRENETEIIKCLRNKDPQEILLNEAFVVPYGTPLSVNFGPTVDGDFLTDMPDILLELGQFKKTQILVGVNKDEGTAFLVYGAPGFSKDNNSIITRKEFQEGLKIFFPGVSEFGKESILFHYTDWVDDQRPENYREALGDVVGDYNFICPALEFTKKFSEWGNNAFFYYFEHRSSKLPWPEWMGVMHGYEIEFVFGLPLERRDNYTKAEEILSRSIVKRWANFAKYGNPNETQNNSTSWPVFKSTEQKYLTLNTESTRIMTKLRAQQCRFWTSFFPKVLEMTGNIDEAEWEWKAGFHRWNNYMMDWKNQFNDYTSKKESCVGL
Description: biochemical. Further details: modified Ellman assay, cholinesterase activity, absorbance at 412 nm. How it is done: (§1) The inhibitory activities of 5–7 and all the reference compounds were determined using modified Ellman’s method against human recombinant AChE (hAChE, E.C. 3.1.1.7, purchased from Sigma-Aldrich, Prague, Czech Republic) and human plasmatic BChE (hBChE, E.C. 3.1.1.8, purchased from Sigma-Aldrich, Prague, Czech Republic). The results are expressed as IC50 (the concentration of the compound that is required to reduce 50% of cholinesterase activity). Other used compounds – phosphate buffer solution (PBS, pH = 7.4), 5,5’-dithio-bis(2-nitrobenzoic) acid (Ellman’s reagent, DTNB), acetylthiocholine (ATCh) and butyrylthiocholine (BTCh) were also commercially available and were purchased from Sigma-Aldrich (Prague, Czech Republic). During the measurement, 96-well microplates from polystyrene (ThermoFisher Scientific, Waltham, MA, USA) were used. The solutions of corresponding enzyme in PBS were prepared up to final activity 0.002 U/µL. The assay medium (100 µL) consisted of cholinesterase (10 µL), DTNB (20 µL of 0.01 M solution) and PBS (40 µL of 0.1 M solution). The solutions of the tested compounds (10 µL of different concentrations) were pre- incubated for 5 minutes in the assay medium and then solution of substrate (20 µL of 0.01 M ATCh or BTCh iodide solution) was added to initiate the reaction. The increase of absorbance was measured at 412 nm using Multimode microplate reader Synergy 2 (BioTek Inc., Winooski, VT, USA). For the calculation of the resulting measured activity (the percentage of inhibition I) following formula was used: [drawing 1] where ΔAi indicates absorbance change provided by adequate enzyme exposed to corresponding inhibitor and ΔA0 indicates absorbance change when a solution of PBS was added instead of a solution of inhibitor. Software Microsoft Excel (Redmont, WA, USA) and GraphPad Prism version 5.02 for Windows (GraphPad Software, San Diego, CA, USA) were used for the statistical data evaluation. ChEs are enzymes responsible for the hydrolysis and metabolism of various endogenous and exogenous substrates, that are broadly studied in association with disease conditions like myasthenia gravis or AD. The primary attention in the development of AD drugs has been paid to AChE inhibitors. Nevertheless, there is growing interest in nonselective or BChE-selective inhibitors due to the compensatory role of BChE when AChE levels are depleted during the progression of AD [23]. Selective BChE inhibitors may be beneficial for patients in moderate-to-severe stages of AD [23, 24]. […] Accordingly, we assessed the inhibition activities of these novel compounds against human recombinant AChE (hAChE) and human serum BChE (hBChE) following a modified spectrophotometric protocol developed by Ellman et al.. […] Complete data are available in the Supplementary Information (Table S1), including the inhibition percentages for all derivatives. Amiridine hydrochloride (amiridine.HCl) and tacrine (THA) were used as reference compounds. […] Only a superficial structure-activity relationship for AChE inhibition can be drawn from the obtained data. […] The presence of any substituent on the benzothiazole core enhanced anti-AChE activity, with the best-tolerated position for the substituent being 6 for derivatives with halogen atoms (7b-d with bromine or 7g-h with [compound left out]. h

The target in data set [3] is T2, hAChE (human recombinant acetylcholinesterase) (Homo sapiens, UniProt P22303).
T2 construct: gene ACHE; recombinant enzyme, purchased from Sigma-Aldrich
T2 sequence (P22303 32-614): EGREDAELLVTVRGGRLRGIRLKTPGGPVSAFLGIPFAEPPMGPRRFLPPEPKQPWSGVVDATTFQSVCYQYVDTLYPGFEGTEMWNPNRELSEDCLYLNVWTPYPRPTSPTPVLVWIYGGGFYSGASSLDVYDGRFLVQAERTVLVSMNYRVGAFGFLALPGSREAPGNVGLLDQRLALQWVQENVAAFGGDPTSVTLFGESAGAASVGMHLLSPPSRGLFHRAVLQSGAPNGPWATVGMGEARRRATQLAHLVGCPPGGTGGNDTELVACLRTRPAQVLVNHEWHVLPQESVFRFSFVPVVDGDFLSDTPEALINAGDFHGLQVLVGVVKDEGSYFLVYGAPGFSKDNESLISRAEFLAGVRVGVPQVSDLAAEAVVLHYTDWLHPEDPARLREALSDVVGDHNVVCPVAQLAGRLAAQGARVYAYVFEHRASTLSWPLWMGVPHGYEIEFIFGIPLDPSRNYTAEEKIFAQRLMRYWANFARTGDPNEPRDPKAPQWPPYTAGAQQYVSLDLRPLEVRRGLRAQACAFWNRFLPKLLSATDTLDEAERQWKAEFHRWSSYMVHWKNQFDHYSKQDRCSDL
Description: biochemical. Further details: modified Ellman assay, cholinesterase activity, absorbance at 412 nm. How it is done: as §1

Data set [4] is described as follows: in vitro. To be noted: human, hepg2 cells; read-out: HepG2 IC50. Also on record: MTT viability assay, HepG2 cells. How it is done: (§2) The cytotoxic profile of 5–7 was carried through the use of the MTT (3-(4,5-dimethylthiazol-2-yl)-2,5-diphenyltetrazolium bromide) assay on human neuroblastoma (SH-SY5Y) and hepatocellular carcinoma (HepG2) cell lines, following established protocols. The cytotoxicity was assessed on SH-SY5Y cells in undifferentiated and in differentiated form. The data obtained from the measurements on the undifferentiated SH-SY5Y and HepG2 cells are summarized in Table 1 for 5c-d, 7c and 7g, as well as for the reference compounds amiridine hydrochloride and THA. Additional data can be found in Supplementary Information (Table S2 and Fig. S1). The both cell lines were cultured according to ECACC recommended conditions and seeded into 96-well plates in 100 µL and density of 8000 per well. For evaluation of cytotoxicity of the differentiated form the SH-SY5Y cells also underwent 9-day differentiation protocol into mature neurons according to Riegerová et al .. The tested compounds were dissolved in DMSO (Sigma Aldrich) or in phosphate buffer saline (PBS, Sigma Aldrich) and subsequently in the growth medium - high glucose Dulbecco’s Modified Eagle’s medium (DMEM; Sigma-Aldrich, D6429). […] Then, the differentiated SH-SY5Y cells were treated with concentrations corresponding to IC50 values obtained from the cytotoxicity measurement using undifferentiated SH-SY5Y cells. Cells were exposed to a tested compound for 24 h. Then the medium was replaced by a medium containing 10 μM of MTT and cells were allowed to produce formazan for another approximately 3 h under surveillance. Thereafter, medium was aspirated and purple crystals of MTT formazan were dissolved in 100 μL DMSO under shaking. Cell viability was assessed spectrophotometrically by the amount of formazan produced. Absorbance was measured at 570 nm with 650 nm reference wavelength on Spark (Tecan Group Ltd, Switzerland). The IC50 value was then calculated from the control-subtracted triplicates using non-linear regression (four parameters) of GraphPad Prism 9 software. Final IC50 and SEM values were obtained as a mean of three independent measurements.

A short description of data set [5]: in vitro. Further details: MTT viability assay, undifferentiated SH-SY5Y cells. To be noted: human, undifferentiated sh-sy5y cells, read-out: SH-SY5Y IC50. As for the experimental part: as §2
The nature of data set [6]: in vitro. Also on record: PAMPA blood-brain barrier permeability, effective permeability Pe. To be noted: PAMPA-BBB Pe. From the text: page 5 / Table S2. Cytotoxicity profiles of 5–7 on SH-SY5Y cell line and predictions to BBB penetration by PAMPA results. / Pe (10^-6 cm.s^-1)
The source holds these as a separate data set.

In data set [7] the target is T3, recombinant human GluN1/GluN2B NMDA receptor (GluN1-4a/GluN2B) (Homo sapiens, UniProt Q05586+Q13224).
T3 construct: gene GRIN1; GluN1-4a and GluN2B co-expressed with GFP in HEK293 cells
T3 sequence (Q13224 27-1484, other chains not shown): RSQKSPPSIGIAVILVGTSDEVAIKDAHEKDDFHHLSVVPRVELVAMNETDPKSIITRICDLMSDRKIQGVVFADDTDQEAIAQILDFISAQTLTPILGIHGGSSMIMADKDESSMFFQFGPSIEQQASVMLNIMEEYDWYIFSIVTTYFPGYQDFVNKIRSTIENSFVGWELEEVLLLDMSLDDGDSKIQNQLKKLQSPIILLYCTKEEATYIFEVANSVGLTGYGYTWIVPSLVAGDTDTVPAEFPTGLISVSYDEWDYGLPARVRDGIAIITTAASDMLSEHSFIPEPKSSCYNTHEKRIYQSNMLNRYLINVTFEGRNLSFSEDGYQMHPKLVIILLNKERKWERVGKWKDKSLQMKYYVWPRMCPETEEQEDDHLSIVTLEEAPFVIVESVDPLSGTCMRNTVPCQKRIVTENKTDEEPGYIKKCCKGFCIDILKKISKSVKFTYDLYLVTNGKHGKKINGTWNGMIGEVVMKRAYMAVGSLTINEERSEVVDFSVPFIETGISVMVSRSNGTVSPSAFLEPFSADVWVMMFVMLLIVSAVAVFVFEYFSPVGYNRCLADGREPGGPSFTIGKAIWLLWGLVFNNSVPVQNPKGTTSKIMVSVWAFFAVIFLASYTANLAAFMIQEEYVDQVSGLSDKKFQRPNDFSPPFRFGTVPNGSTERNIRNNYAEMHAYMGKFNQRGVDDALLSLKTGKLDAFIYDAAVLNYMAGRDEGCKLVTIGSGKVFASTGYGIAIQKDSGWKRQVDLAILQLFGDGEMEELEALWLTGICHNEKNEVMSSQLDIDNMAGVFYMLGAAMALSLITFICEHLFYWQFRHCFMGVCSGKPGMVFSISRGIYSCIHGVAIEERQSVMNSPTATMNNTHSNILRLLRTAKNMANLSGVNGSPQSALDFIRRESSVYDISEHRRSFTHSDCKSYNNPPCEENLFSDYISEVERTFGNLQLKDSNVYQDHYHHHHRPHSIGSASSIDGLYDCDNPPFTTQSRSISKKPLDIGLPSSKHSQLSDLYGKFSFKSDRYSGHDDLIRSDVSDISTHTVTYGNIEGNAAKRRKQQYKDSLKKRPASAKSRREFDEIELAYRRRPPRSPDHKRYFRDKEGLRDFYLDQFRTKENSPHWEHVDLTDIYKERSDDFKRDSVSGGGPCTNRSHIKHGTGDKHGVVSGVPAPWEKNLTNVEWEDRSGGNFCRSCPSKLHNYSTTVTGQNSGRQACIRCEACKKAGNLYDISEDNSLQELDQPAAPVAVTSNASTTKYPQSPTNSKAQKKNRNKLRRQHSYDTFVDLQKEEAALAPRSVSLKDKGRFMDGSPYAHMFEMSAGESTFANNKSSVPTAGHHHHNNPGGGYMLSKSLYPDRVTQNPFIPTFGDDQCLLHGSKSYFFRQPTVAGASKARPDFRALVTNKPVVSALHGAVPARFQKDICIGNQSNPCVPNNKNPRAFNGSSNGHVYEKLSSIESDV
Description: whole-cell patch clamp, HEK293. The format is cell-based. To be noted: -60 mV, 1 mM L-glutamate, 100 µM glycine, pH 7.3, steady state; voltage-dependent. An excerpt: whole-cell patch clamp, HEK293 on recombinant human GluN1/GluN2B NMDA receptor (GluN1-4a/GluN2B)

Where two headings read alike, the source gives them in different places.

In data set [1], `O=C(CNC12CC3CC(CC(C3)C1)C2)Nc1c2c(nc3c1CCC3)CCCC2` [5a] gave a Papp of 23.4 ± 1.86 ×10⁻⁶ cm/s. For the same compound, the figures for the inhibition at 1 µM in data set [2] and in data set [3] were 14 ± 1.75% and 2.83 ± 0.49%, respectively. Moreover, the CC50 at 24 h stood at 67.9 ± 1.12 µM in data set [4] and 74 ± 2.8 µM in data set [5].

`O=C(CNc1nc2ccc(OC(F)(F)F)cc2s1)Nc1c2c(nc3c1CCC3)CCCC2` [7m, N-{1H,2H,3H,5H,6H,7H,8H-cyclopenta[b]quinolin-9-yl}-2-{[6-(trifluoromethoxy)-1,3-benzothiazol-2-yl]amino}acetamide]: the values for the inhibition at 1 µM in data set [2] and in data set [3] were 1.5 ± 0.64% and 13.3 ± 0.71%, respectively. The compound further gave a Papp in data set [6] of 2.54 ± 0.42 ×10⁻⁶ cm/s. For the same compound, the “RI (% inhibition at 30 μM)” value in data set [7] amounted to 63.0 ± 2.6%. The CC50 at 24 h is no less than 200 µM in data set [4] and 29.5 ± 2.3 µM in data set [5].

Source of the values: article doi:10.1101/2024.02.15.580468v1, “Morphing Cholinesterase Inhibitor Amiridine into Multipotent Drugs for the Treatment of Alzheimer’s Disease” (biorxiv, 2024).
